Among the data in US20220169643A1, “ESTROGEN RECEPTOR DEGRADING PROTACS” (AstraZeneca AB, priority 2019, published 2022) are IC50 values, retold here.

The experiment has as its target T1, Estrogen Receptor Alpha Ligand binding domain (ER alpha-LBD (GST)) (Homo sapiens, UniProt P03372).
T1 construct: made in house
T1 sequence (P03372 307-554): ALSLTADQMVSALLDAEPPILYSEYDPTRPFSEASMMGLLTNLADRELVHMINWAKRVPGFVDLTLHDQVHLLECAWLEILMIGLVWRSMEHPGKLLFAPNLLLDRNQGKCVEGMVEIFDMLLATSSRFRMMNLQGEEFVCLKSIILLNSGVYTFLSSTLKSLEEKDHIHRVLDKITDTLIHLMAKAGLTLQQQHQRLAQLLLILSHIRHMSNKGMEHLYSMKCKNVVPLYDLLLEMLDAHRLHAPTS
As to the kind of experiment: ERα Binding Assay (LanthaScreen TR-FRET competition). As to conditions: competitive displacement of Fluormone ES2 tracer from recombinant human ER alpha-LBD (residues 307-554), 4 hours at room temperature. As to the method: The ability of compounds to bind to isolated Estrogen Receptor Alpha Ligand binding domain (ER alpha-LBD (GST)) was assessed in competition assays using a LanthaScreen™ Time-Resolved Fluorescence Resonance Energy Transfer (TR-FRET) detection end-point. For the LanthaScreen TR-FRET endpoint, a suitable fluorophore (Fluormone ES2, ThermoFisher, Product code P2645) and recombinant human Estrogen Receptor alpha ligand binding domain, residues 307-554 (expressed and purified in-house) were used to measure compound binding. The assay principle is that ER alpha-LBD (GST) is added to a fluorescent ligand to form a receptor/fluorophore complex. A terbium-labelled anti-GST antibody (Product code PV3551) is used to indirectly label the receptor by binding to its GST tag, and competitive binding is detected by a test compound's ability to displace the fluorescent ligand, resulting in a loss of TR-FRET signal between the Th-anti-GST antibody and the tracer. The assay was performed as follows with all reagent additions carried out using the Beckman Coulter BioRAPTR FRD microfluidic workstation: • 1. Acoustic dispense 120 nL of the test compound into a black low volume 384 well assay plates. • 2. Prepare 1×ER alpha-LBD/Tb-anti-GST Ab in ES2 screening buffer and incubate for 15 minutes. • 3. Dispense 6 μL of the 1×[…]/Th-anti-GST Ab reagent into each well of the assay plate followed by 6 μL of Fluorophore reagent into each well of the assay plate • 4. Cover the assay plate to protect the reagents from light and evaporation, and incubate at room temperature for 4 hours. • 5. Excite at 337 nm and measure the fluorescent emission signal of each well at 490 nm and 520 nm using the BMG PheraSTAR.
Compounds were dosed directly from a compound source microplate containing serially diluted compound (4 wells containing 10 mM, […] and 10 nM final compound respectively) to an assay microplate using the Labcyte Echo 550. The Echo 550 is a liquid handler that uses acoustic technology to perform direct microplate-to-microplate transfers of DMSO compound solutions and the system can be programmed to transfer multiple small nL volumes of compound from the different source plate wells to give the desired serial dilution of compound in the assay which is then back-filled to normalise the DMSO concentration across the dilution range.
In total 120 nL of compound plus DMSO were added to each well and compounds were tested in a 12-point concentration response format over a final compound concentration range of 10, 2.917, 1.042, 0.2083, 0.1, 0.0292, 0.0104, 0.002083, 0.001, 0.0002917, 0.0001042, and 0.00001 μM respectively. TR-FRET dose response data obtained with each compound was exported into a suitable software package (such as Origin or Genedata) to perform curve fitting analysis. Competitive ER alpha binding was expressed as an IC50 value. This was determined by calculation of the concentration of compound that was required to give a 50% reduction in tracer compound binding to ER alpha-LBD.
(In general: TR-FRET usually uses a lanthanide donor and a delayed reading to cut background.)

A word on the IC50: it is the concentration at which inhibition is half-maximal. As for `C[C@@H]1Cc2c([nH]c3ccccc23)[C@@H](c2ccc(N3CCC(CN4CCC5(CC4)CCN(c4ccc6c(c4)CN(C4CCC(=O)NC4=O)C6=O)CC5)CC3)cn2)N1CC(C)(C)F` (stereo partly drawn) [Example 21, 3-(5-{9-[(1-{6-[(1S,3R)-2-(2-fluoro-2-methylpropyl)-3-methyl-2,3,4,9-tetrahydro-1H-beta-carbolin-1-yl]pyridin-3-yl}piperidin-4-yl)methyl]-3,9-diazaspiro[5.5]undecan-3-yl}-1-oxo-1,3-dihydro-2H-isoindol-2-yl)piperidine-2,6-dione], the IC50 came out at 7.6 nM.
To `C[C@@H]1Cc2c([nH]c3ccccc23)[C@@H](c2cnc(N3CCC4(CCN(CCN5CCN(c6ccc7c(c6)CN(C6CCC(=O)NC6=O)C7=O)CC5=O)CC4)CC3)nc2)N1CC(C)(C)F` (stereo partly drawn) [Example 26, 3-(5-{4-[2-(9-{5-[(1R,3R)-2-(2-fluoro-2-methylpropyl)-3-methyl-2,3,4,9-tetrahydro-1H-beta-carbolin-1-yl]pyrimidin-2-yl}-3,9-diazaspiro[5.5]undecan-3-yl)ethyl]-3-oxopiperazin-1-yl}-1-oxo-1,3-dihydro-2H-isoindol-2-yl)piperidine-2,6-dione] belongs 18 nM; to `C[C@@H]1Cc2c([nH]c3ccccc23)[C@@H](c2cnc(N3CCC(CCCN4CCN(c5ccc6c(c5)CN(C5CCC(=O)NC5=O)C6=O)CC4)CC3)nc2)N1CC(F)(F)F` (stereo partly drawn) [Example 34, 3-(5-{4-[3-(1-{5-[(1R,3R)-3-methyl-2-(2,2,2-trifluoroethyl)-2,3,4,9-tetrahydro-1H-beta-carbolin-1-yl]pyrimidin-2-yl}piperidin-4-yl)propyl]piperazin-1-yl}-1-oxo-1,3-dihydro-2H-isoindol-2-yl)piperidine-2,6-dione], 7.3 nM.
Then `C[C@@H]1Cc2c([nH]c3ccccc23)[C@@H](c2cnc(N3CCC(CN4CCN(c5ccc6c(c5)CN(C5CCC(=O)NC5=O)C6=O)CC4)CC3)nc2)N1CC(F)(F)F` (stereo partly drawn) [Example 35, 3-(5-{4-[(1-{5-[(1R,3R)-3-methyl-2-(2,2,2-trifluoroethyl)-2,3,4,9-tetrahydro-1H-beta-carbolin-1-yl]pyrimidin-2-yl}piperidin-4-yl)methyl]piperazin-1-yl}-1-oxo-1,3-dihydro-2H-isoindol-2-yl)piperidine-2,6-dione], with 6.9 nM; and `C[C@@H]1Cc2c([nH]c3ccccc23)[C@@H](c2cnc(N3CC(CCN4CCN(c5ccc6c(c5)CN(C5CCC(=O)NC5=O)C6=O)CC4)C3)nc2)N1CC(C)(C)F` (stereo partly drawn) [Example 37, 3-(5-{4-[2-(1-{5-[(1R,3R)-2-(2-fluoro-2-methylpropyl)-3-methyl-2,3,4,9-tetrahydro-1H-beta-carbolin-1-yl]pyrimidin-2-yl}azetidin-3-yl)ethyl]piperazin-1-yl}-1-oxo-1,3-dihydro-2H-isoindol-2-yl)piperidine-2,6-dione], with 3.3 nM.
To `C[C@@H]1Cc2c([nH]c3ccccc23)[C@@H](c2cnc(N3CCC(OCCCN4CCN(c5ccc6c(c5)CN(C5CCC(=O)NC5=O)C6=O)CC4)CC3)nc2)N1CC(C)(C)F` (stereo partly drawn) [Example 38, 3-[5-(4-{3-[(1-{5-[(1R,3R)-2-(2-fluoro-2-methylpropyl)-3-methyl-2,3,4,9-tetrahydro-1H-beta-carbolin-1-yl]pyrimidin-2-yl}piperidin-4-yl)oxy]propyl}piperazin-1-yl)-1-oxo-1,3-dihydro-2H-isoindol-2-yl]piperidine-2,6-dione] belongs 3.6 nM; to `COc1cc(N2CCN(CC3CCN(c4ncc([C@@H]5c6[nH]c7ccccc7c6C[C@@H](C)N5CC(C)(C)F)cn4)CC3)CC2)cc2c1C(=O)N(C1CCC(=O)NC1=O)C2` (stereo partly drawn) [Example 39, 3-(5-{4-[(1-{5-[(1R,3R)-2-(2-fluoro-2-methylpropyl)-3-methyl-2,3,4,9-tetrahydro-1H-beta-carbolin-1-yl]pyrimidin-2-yl}piperidin-4-yl)methyl]piperazin-1-yl}-7-methoxy-1-oxo-1,3-dihydro-2H-isoindol-2-yl)piperidine-2,6-dione], 3.2 nM.
As for `C[C@@H]1Cc2c([nH]c3ccccc23)[C@@H](c2cnc(OCCCCCN3CCN(c4ccc5c(c4)CN(C4CCC(=O)NC4=O)C5=O)CC3)nc2)N1CC(C)(C)F` (stereo partly drawn) [Example 40, 3-(5-{4-[5-({5-[(1R,3R)-2-(2-fluoro-2-methylpropyl)-3-methyl-2,3,4,9-tetrahydro-1H-beta-carbolin-1-yl]pyrimidin-2-yl}oxy)pentyl]piperazin-1-yl}-1-oxo-1,3-dihydro-2H-isoindol-2-yl)piperidine-2,6-dione], the IC50 came out at 7 nM.
For `C[C@@H]1Cc2c([nH]c3ccccc23)[C@@H](c2cnc(OC3CCC4(CC3)CCN(CC3CCN(c5ccc6c(c5)CN(C5CCC(=O)NC5=O)C6=O)CC3)CC4)nc2)N1CC(C)(C)F` (stereo partly drawn) [Example 41, 3-[5-(4-{[9-({5-[(1R,3R)-2-(2-fluoro-2-methylpropyl)-3-methyl-2,3,4,9-tetrahydro-1H-beta-carbolin-1-yl]pyrimidin-2-yl}oxy)-3-azaspiro[5.5]undecan-3-yl]methyl}piperidin-1-yl)-1-oxo-1,3-dihydro-2H-isoindol-2-yl]piperidine-2,6-dione], the IC50 worked out at 2.2 nM.
